The text below walks through data of ChEMBL document CHEMBL1126504, “Synthesis of pyrrolidine oxazoles as thromboxane A2/endoperoxide receptor antagonists” (Bioorg Med Chem Lett, 1993).

Each structure is given as a SMILES string.

One test is filed under the species Homo sapiens. The test can be described thus: Inhibition of arachidonic acid-induced and ADP-induced platelet aggregation of human platelet rich plasma. The test is classed as functional. Particulars: read-out: I50.
For a further test, the target named is T1, Thromboxane A2 receptor (Homo sapiens, UniProt P21731).
T1 sequence (P21731 whole entry): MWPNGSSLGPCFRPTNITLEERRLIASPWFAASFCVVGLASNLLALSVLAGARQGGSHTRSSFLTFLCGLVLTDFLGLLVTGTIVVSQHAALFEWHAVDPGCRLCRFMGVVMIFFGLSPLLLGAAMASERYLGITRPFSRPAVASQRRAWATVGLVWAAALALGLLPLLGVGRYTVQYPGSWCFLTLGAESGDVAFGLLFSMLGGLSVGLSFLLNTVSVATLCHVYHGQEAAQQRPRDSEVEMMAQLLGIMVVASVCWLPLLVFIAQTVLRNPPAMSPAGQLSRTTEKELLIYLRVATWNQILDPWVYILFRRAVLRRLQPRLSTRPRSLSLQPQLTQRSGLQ
Kind of test: Binding affinity was determined for Thromboxane A2 receptor in human platelet membrane in presence of [3H]-SQ-29,548 radioligand. The test is classed as cell membranes.

As for `O=C(O)CCc1ccccc1C(=O)N1[C@@H](O)CC[C@H]1c1nc(C(=O)NCCc2ccc(Cl)cc2)co1`, the IC50 in the test filed under Homo sapiens (Homo sapiens, Plasma) is 3700 nM.
In the case of `O=C(O)CCc1ccccc1CN1CCC[C@H]1c1nc(C(=O)NCCCCC2CCCCC2)co1`, the IC50 in the test filed under Homo sapiens (Homo sapiens, Plasma) amounted to 19 nM.
Still for that read-out and setting: the same measure for `O=C(O)CCc1ccccc1CN1CCC[C@@H]1c1nc(C(=O)NCCCCC2CCCCC2)co1`: 1700 nM.
Turning to `O=C(O)CCc1ccccc1C(=O)N1c2ccccc2CC1c1nc(C(=O)NCCc2ccc(Cl)cc2)co1` (single isomer, unassigned; (-)), in the test listed under Homo sapiens, the IC50 came out at 3700 nM.
A word on the Kd: it is the concentration at which binding is half-saturated. As to `O=C(O)CCc1ccccc1CN1CCCC1c1nc(C(=O)NCCCCC2CCCCC2)co1` (stereo not drawn), the Kd on Thromboxane A2 receptor stood at 11 nM.
In the case of `O=C(O)CCc1ccccc1C(=O)N1c2ccccc2CC1c1nc(C(=O)NCCc2ccc(Cl)cc2)co1` (single isomer, unassigned; (+)), the IC50 in the test listed under Homo sapiens came out at 250 nM.
As to `O=C(O)CCc1ccccc1C(=O)N1CCC[C@H]1c1nc(C(=O)NCCCCC2CCCCC2)co1`, the IC50 in the test listed under Homo sapiens (Homo sapiens, Plasma) was determined as 19 nM.
Same read-out and setting: the same measure for `O=C(O)CCc1ccccc1CN1C(=O)CCC1c1nc(C(=O)NCCCCC2CCCCC2)co1` (stereo not drawn): 23000 nM.
